Experimental data published in ChEMBL document CHEMBL1153052, “Identification of new Hsp90 inhibitors by structure-based virtual screening” (Bioorg Med Chem Lett, 2009).
The source made the active and inactive calls. The rule behind the calls is not given here.

Tests used:
MCF7 = experiment: Cytotoxicity against human MCF7 cells by SRB assay; type: functional, cell-based
[1] = target: T1, Heat shock protein HSP90 (Homo sapiens) (UniProt P07900+P08238); experiment: Inhibition of Hsp90 in human MCF7 cells assessed as induction of Hsp70 expression at 20 to 40 uM after 24 hrs by Western blotting; type: cell-based
[2] = target: T1, Heat shock protein HSP90 (Homo sapiens); experiment: Inhibition of Hsp90 in human MCF7 cells assessed as Her2 degradation at 20 to 40 uM after 24 hrs by Western blotting; type: cell-based
[3] = target: ATP-dependent molecular chaperone HSP82 (Saccharomyces cerevisiae S288c, UniProt P02829); experiment: Inhibition of yeast Hsp90 ATPase activity by ATPase assay using malachite green colorimetric method
Sequence of ATP-dependent molecular chaperone HSP82 (P02829 whole entry): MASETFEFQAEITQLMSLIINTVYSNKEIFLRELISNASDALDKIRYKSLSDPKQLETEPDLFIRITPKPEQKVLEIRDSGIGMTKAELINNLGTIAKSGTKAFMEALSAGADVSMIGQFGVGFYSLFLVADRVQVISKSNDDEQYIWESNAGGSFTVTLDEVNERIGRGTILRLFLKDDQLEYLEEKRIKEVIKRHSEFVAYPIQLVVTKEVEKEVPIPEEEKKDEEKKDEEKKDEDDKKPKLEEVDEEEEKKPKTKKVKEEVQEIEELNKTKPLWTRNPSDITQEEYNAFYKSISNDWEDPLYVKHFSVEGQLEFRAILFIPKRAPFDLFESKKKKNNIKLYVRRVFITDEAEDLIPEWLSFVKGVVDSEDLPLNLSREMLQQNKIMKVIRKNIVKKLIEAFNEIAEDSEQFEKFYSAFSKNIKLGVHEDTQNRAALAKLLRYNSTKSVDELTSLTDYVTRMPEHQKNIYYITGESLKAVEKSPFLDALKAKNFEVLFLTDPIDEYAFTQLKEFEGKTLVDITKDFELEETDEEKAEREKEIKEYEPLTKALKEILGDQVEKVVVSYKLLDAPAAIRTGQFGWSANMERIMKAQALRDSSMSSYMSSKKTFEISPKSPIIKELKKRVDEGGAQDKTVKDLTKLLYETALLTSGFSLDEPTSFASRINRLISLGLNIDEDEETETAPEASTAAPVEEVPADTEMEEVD

SMILES | IC50 (MCF7) [µM] | Activity [1] | Activity [2] | IC50 [3] [µM]
COC1=C2C[C@@H](C)C[C@H](OC)[C@H](O)[C@@H](C)/C=C(\C)[C@H](OC(N)=O)[C@@H](OC)/C=C\C=C(/C)C(=O)NC(=CC1=O)C2=O [GELDANAMYCIN] | 9.6 | – | – | –
CCOc1cc(/C=C2\C(=O)NC(=O)N(Cc3ccccc3)C2=O)ccc1O | – | inactive | – | –
O=C(CSc1nnc(-c2cccnc2)n1-c1ccccc1)NCc1ccccc1 | – | inactive | Active | –
O=C(CSc1nnc(-c2ccc3c(c2)OCO3)n1-c1ccccc1)c1ccccc1 | 44.6 | inactive | Active | 15.4
O=C1NC(=O)N(c2ccccc2F)C(=O)/C1=C\c1cn(Cc2ccccc2)c2ccccc12 | 18.1 | Active | Active | 24.6
Cc1cccc(N2C(=O)NC(=O)/C(=C/c3ccccc3OCC(=O)O)C2=O)c1 | – | inactive | Active | –
COc1ccc(-c2cc(-c3nnc(S)n3-c3cccc4ccccc34)[nH]n2)cc1 | – | inactive | Active | –
